Reference: ChEMBL document CHEMBL1201862, “PubChem BioAssay data set” (2004)
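Briefly, cells in 96-well plates were exposed to five compound concentrations for 48 h, and endpoints were estimated by linear interpolation. The concentration for 50% growth inhibition is given as GI50.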 Calls of active or inactive are those of the source. Rule as the data show it: active = GI50 up to about 1.1 µM and inactive = higher.

Columns and labels:
Assay in all cases: inhibition of tumour cell growth, NCI panel, 48 h
MOLT-4 = tested on: MOLT-4
M19-MEL = tested on: M19-MEL
UACC-257 = tested on: UACC-257
HCT-116 = tested on: HCT-116
A549 = tested on: A549
OVCAR-8 = tested on: OVCAR-8
SK-MEL-2 = tested on: SK-MEL-2
NCI-H460 = tested on: NCI-H460
UO-31 = tested on: UO-31
OVCAR-4 = tested on: OVCAR-4
OVCAR-5 = tested on: OVCAR-5
M14 = tested on: M14
CCRF-CEM = tested on: CCRF-CEM
SK-MEL-5 = tested on: SK-MEL-5
ACHN = tested on: ACHN
OVCAR-3 = tested on: OVCAR-3
SNB-75 = tested on: SNB-75
SF-539 = tested on: SF-539
CAKI-1 = tested on: CAKI-1
Malme-3M = tested on: Malme-3M
NCI-H522 = tested on: NCI-H522
K562 = tested on: K562
SNB-78 = tested on: SNB-78
XF498 = tested on: XF498
U-251 = tested on: U-251
HCC 2998 = tested on: HCC 2998
HOP-62 = tested on: HOP-62
786-0 = tested on: 786-0
LOX IMVI = tested on: LOX IMVI
EKVX = tested on: EKVX
SF-268 = tested on: SF-268
HCT-15 = tested on: HCT-15
SK-MEL-28 = tested on: SK-MEL-28
HT-29 = tested on: HT-29
DLD-1 = tested on: DLD-1
NCI-H23 = tested on: NCI-H23
COLO 205 = tested on: COLO 205
TK-10 = tested on: TK-10
SN12C = tested on: SN12C
DMS-273 = tested on: DMS-273
SW-620 = tested on: SW-620
DMS-114 = tested on: DMS-114
SF-295 = tested on: SF-295
NCI-H226 = tested on: NCI-H226
SNB-19 = tested on: SNB-19
HL-60 = tested on: HL-60
LXFL 529 = tested on: LXFL 529
RXF 393 = tested on: RXF 393
IGROV-1 = tested on: IGROV-1
HOP-92 = tested on: HOP-92
KM-20L2 = tested on: KM-20L2
SR = tested on: SR
RPMI-8226 = tested on: RPMI-8226
SK-OV-3 = tested on: SK-OV-3
UACC-62 = tested on: UACC-62
KM12 = tested on: KM12

In the case of `COc1cccc(/C=C2\C(=O)N(C(=O)c3ccc(NC(C)=O)cc3)N=C2C)c1`, the GI50 (MOLT-4) was > 100 µM (inactive), the GI50 (M19-MEL) was > 100 µM (inactive) and the GI50 (UACC-257) was > 100 µM (inactive). The GI50 (HCT-116) was > 100 µM (inactive), the GI50 (A549) was > 100 µM (inactive) and the GI50 (OVCAR-8) was > 100 µM (inactive). For the same molecule, the GI50 (SK-MEL-2) was > 100 µM (inactive), the GI50 (NCI-H460) was > 100 µM (inactive) and the GI50 (UO-31) was > 100 µM (inactive). For the same molecule, the GI50 (OVCAR-4) was > 100 µM (inactive), the GI50 (OVCAR-5) was > 100 µM (inactive) and the GI50 (M14) was > 100 µM (inactive). For the same molecule, the GI50 (CCRF-CEM) was > 100 µM (inactive), the GI50 (SK-MEL-5) was 56.1 µM (inactive) and the GI50 (ACHN) was > 100 µM (inactive). The GI50 (OVCAR-3) was > 100 µM (inactive), the GI50 (SNB-75) was > 100 µM (inactive) and the GI50 (SF-539) was > 100 µM (inactive). For the same molecule, the GI50 (CAKI-1) was > 100 µM (inactive), the GI50 (Malme-3M) was > 100 µM (inactive) and the GI50 (NCI-H522) was > 100 µM (inactive). For the same molecule, the GI50 (K562) was > 100 µM (inactive), the GI50 (SNB-78) was > 100 µM (inactive) and the GI50 (XF498) was > 100 µM (inactive). For the same molecule, the GI50 (U-251) was > 100 µM (inactive), the GI50 (HCC 2998) was > 100 µM (inactive) and the GI50 (HOP-62) was > 100 µM (inactive). For the same molecule, the GI50 (786-0) was > 100 µM (inactive), the GI50 (LOX IMVI) was > 100 µM (inactive) and the GI50 (EKVX) was > 100 µM (inactive). For the same molecule, the GI50 (SF-268) was > 100 µM (inactive), the GI50 (HCT-15) was greater than 100 µM and the GI50 (SK-MEL-28) was > 100 µM (inactive). For the same molecule, the GI50 (HT-29) was > 100 µM (inactive), the GI50 (DLD-1) was > 100 µM (inactive) and the GI50 (NCI-H23) was > 100 µM (inactive). For the same molecule, the GI50 (COLO 205) was > 100 µM (inactive), the GI50 (TK-10) was > 100 µM (inactive) and the GI50 (SN12C) was > 100 µM (inactive). For the same molecule, the GI50 (DMS-273) was > 100 µM (inactive), the GI50 (SW-620) was > 100 µM (inactive) and the GI50 (DMS-114) was > 100 µM (inactive). For the same molecule, the GI50 (SF-295) was > 100 µM (inactive), the GI50 (NCI-H226) was > 100 µM (inactive) and the GI50 (SNB-19) was > 100 µM (inactive).
For `CC(=O)CC(=O)ON(C)C(=O)Cc1ccccc1`, the GI50 (HL-60) was > 100 µM (inactive), the GI50 (MOLT-4) was > 100 µM (inactive) and the GI50 (M19-MEL) was > 100 µM (inactive). For the same molecule, the GI50 (UACC-257) was > 100 µM (inactive), the GI50 (HCT-116) was > 100 µM (inactive) and the GI50 (LXFL 529) was > 100 µM (inactive). For the same molecule, the GI50 (A549) was > 100 µM (inactive), the GI50 (OVCAR-8) was > 100 µM (inactive) and the GI50 (NCI-H460) was > 100 µM (inactive). For the same molecule, the GI50 (UO-31) was > 100 µM (inactive), the GI50 (OVCAR-4) was > 100 µM (inactive) and the GI50 (OVCAR-5) was > 100 µM (inactive). For the same molecule, the GI50 (M14) was > 100 µM (inactive), the GI50 (CCRF-CEM) was > 100 µM (inactive) and the GI50 (SK-MEL-5) was > 100 µM (inactive). For the same molecule, the GI50 (ACHN) was > 100 µM (inactive), the GI50 (RXF 393) was > 100 µM (inactive) and the GI50 (OVCAR-3) was > 100 µM (inactive). For the same molecule, the GI50 (SNB-75) was > 100 µM (inactive), the GI50 (SF-539) was > 100 µM (inactive) and the GI50 (CAKI-1) was > 100 µM (inactive). The GI50 (Malme-3M) was > 100 µM (inactive), the GI50 (NCI-H522) was > 100 µM (inactive) and the GI50 (K562) was > 100 µM (inactive). The GI50 (SNB-78) was > 100 µM (inactive), the GI50 (IGROV-1) was > 100 µM (inactive) and the GI50 (XF498) was > 100 µM (inactive). For the same molecule, the GI50 (HOP-92) was > 100 µM (inactive), the GI50 (KM-20L2) was > 100 µM (inactive) and the GI50 (U-251) was > 100 µM (inactive). For the same molecule, the GI50 (HCC 2998) was > 100 µM (inactive), the GI50 (SR) was > 100 µM (inactive) and the GI50 (HOP-62) was > 100 µM (inactive). For the same molecule, the GI50 (RPMI-8226) was > 100 µM (inactive), the GI50 (786-0) was > 100 µM (inactive) and the GI50 (LOX IMVI) was > 100 µM (inactive). The GI50 (SF-268) was > 100 µM (inactive), the GI50 (SK-OV-3) was > 100 µM (inactive) and the GI50 (HCT-15) was greater than 100 µM. The GI50 (SK-MEL-28) was > 100 µM (inactive), the GI50 (HT-29) was > 100 µM (inactive) and the GI50 (DLD-1) was > 100 µM (inactive). For the same molecule, the GI50 (NCI-H23) was > 100 µM (inactive), the GI50 (COLO 205) was > 100 µM (inactive) and the GI50 (UACC-62) was > 100 µM (inactive). The GI50 (TK-10) was > 100 µM (inactive), the GI50 (SN12C) was > 100 µM (inactive) and the GI50 (DMS-273) was > 100 µM (inactive). The GI50 (SW-620) was > 100 µM (inactive), the GI50 (DMS-114) was > 100 µM (inactive) and the GI50 (SF-295) was > 100 µM (inactive). For the same molecule, the GI50 (KM12) was > 100 µM (inactive), the GI50 (NCI-H226) was > 100 µM (inactive) and the GI50 (SNB-19) was > 100 µM (inactive).
